Read-outs that look alike come from different tables or passages of the source.
How the values were obtained:
[1] = target: T1, leucine-rich repeat kinase 2 (LRRK2) (Homo sapiens, UniProt Q5S007); assay: biochemical; design: PhosphoSense (AssayQuant) kinase activity assay with purified LRRK2 RCKW
T1 construct: LRRK2^RCKW (ROC, COR, Kinase, WD40)
T1 sequence (Q5S007 1327-2527 limits assumed): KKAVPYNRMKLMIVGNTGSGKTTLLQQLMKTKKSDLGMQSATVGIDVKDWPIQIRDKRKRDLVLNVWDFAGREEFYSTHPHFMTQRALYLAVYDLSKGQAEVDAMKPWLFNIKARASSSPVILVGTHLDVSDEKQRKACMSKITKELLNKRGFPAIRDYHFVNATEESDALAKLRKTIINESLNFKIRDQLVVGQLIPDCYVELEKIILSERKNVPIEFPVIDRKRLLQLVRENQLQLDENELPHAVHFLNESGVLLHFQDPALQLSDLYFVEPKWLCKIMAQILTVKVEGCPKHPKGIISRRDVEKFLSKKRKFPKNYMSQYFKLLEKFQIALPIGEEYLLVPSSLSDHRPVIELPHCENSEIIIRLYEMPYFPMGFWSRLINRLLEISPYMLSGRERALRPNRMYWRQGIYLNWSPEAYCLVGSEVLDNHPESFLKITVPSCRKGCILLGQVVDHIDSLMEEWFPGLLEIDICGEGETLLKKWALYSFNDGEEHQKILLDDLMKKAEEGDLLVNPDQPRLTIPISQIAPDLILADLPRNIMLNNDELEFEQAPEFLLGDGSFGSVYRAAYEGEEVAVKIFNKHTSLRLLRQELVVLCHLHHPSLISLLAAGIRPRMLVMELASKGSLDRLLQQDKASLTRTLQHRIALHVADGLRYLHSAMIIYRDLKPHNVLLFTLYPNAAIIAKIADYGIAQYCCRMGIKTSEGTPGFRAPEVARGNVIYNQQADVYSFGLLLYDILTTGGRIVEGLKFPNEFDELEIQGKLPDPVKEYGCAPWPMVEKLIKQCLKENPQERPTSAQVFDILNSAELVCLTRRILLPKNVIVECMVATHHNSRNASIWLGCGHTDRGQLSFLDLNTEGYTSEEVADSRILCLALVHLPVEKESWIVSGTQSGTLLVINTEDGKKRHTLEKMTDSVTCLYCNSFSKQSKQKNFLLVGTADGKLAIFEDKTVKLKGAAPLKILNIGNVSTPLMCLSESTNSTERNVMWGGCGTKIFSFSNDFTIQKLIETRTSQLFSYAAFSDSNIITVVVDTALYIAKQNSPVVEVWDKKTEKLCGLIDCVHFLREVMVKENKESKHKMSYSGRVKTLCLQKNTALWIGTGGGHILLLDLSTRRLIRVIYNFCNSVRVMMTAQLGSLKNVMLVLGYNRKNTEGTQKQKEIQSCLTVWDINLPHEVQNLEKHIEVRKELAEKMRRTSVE
From the text: Next, we evaluated the potency and selectivity of these new compounds. We performed on-target screening by measuring the thermostability increase of LRRK2^KW in the presence of the new compounds using DSF (Supporting Information Table S2). We also determined the in vitro IC50 (median inhibitory concentration) values for each of the new compounds by purifying LRRK2^RCKW and measuring its kinase activity in the presence of our new inhibitors using the PhosphoSense® activity assay from AssayQuant (Supporting Information Table S2). Finally, we estimated the kinome selectivity of each compound by measuring the thermostability increase of approximately 100 representative kinases in the presence of the compounds via DSF (Supporting Information Table S2).

[2] = target: T2, LRRK2^KW (Homo sapiens, UniProt Q5S007); design: Differential scanning fluorometry, thermal stabilization of LRRK2 KW by compound; details: binder
T2 construct: Kinase and WD40 domain construct (KW)
From the text: Next, we evaluated the potency and selectivity of these new compounds. We performed on-target screening by measuring the thermostability increase of LRRK2^KW in the presence of the new compounds using DSF (Supporting Information Table S2). We also determined the in vitro IC50 (median inhibitory concentration) values for each of the new compounds by purifying LRRK2^RCKW and measuring its kinase activity in the presence of our new inhibitors using the PhosphoSense® activity assay from AssayQuant (Supporting Information Table S2). Finally, we estimated the kinome selectivity of each compound by measuring the thermostability increase of approximately 100 representative kinases in the presence of the compounds via DSF (Supporting Information Table S2). […] Additionally, we screened a library of published type-II inhibitors to identify those that bind to LRRK2^KW (a Kinase and WD40 domain construct of LRRK2) with high affinity.

[3] = target: T2, LRRK2^KW; design: DSF thermal shift of purified LRRK2 KW construct with compound; details: binder
From the text: Additionally, we screened a library of published type-II inhibitors to identify those that bind to LRRK2^KW (a Kinase and WD40 domain construct of LRRK2) with high affinity. […] Next, we evaluated the potency and selectivity of these new compounds. We performed on-target screening by measuring the thermostability increase of LRRK2^KW in the presence of the new compounds using DSF (Supporting Information Table S2). We also determined the in vitro IC50 (median inhibitory concentration) values for each of the new compounds by purifying LRRK2^RCKW and measuring its kinase activity in the presence of our new inhibitors using the PhosphoSense® activity assay from AssayQuant (Supporting Information Table S2). Finally, we estimated the kinome selectivity of each compound by measuring the thermostability increase of approximately 100 representative kinases in the presence of the compounds via DSF (Supporting Information Table S2).

T2 sequence (Q5S007 whole entry, the tested form may be a part): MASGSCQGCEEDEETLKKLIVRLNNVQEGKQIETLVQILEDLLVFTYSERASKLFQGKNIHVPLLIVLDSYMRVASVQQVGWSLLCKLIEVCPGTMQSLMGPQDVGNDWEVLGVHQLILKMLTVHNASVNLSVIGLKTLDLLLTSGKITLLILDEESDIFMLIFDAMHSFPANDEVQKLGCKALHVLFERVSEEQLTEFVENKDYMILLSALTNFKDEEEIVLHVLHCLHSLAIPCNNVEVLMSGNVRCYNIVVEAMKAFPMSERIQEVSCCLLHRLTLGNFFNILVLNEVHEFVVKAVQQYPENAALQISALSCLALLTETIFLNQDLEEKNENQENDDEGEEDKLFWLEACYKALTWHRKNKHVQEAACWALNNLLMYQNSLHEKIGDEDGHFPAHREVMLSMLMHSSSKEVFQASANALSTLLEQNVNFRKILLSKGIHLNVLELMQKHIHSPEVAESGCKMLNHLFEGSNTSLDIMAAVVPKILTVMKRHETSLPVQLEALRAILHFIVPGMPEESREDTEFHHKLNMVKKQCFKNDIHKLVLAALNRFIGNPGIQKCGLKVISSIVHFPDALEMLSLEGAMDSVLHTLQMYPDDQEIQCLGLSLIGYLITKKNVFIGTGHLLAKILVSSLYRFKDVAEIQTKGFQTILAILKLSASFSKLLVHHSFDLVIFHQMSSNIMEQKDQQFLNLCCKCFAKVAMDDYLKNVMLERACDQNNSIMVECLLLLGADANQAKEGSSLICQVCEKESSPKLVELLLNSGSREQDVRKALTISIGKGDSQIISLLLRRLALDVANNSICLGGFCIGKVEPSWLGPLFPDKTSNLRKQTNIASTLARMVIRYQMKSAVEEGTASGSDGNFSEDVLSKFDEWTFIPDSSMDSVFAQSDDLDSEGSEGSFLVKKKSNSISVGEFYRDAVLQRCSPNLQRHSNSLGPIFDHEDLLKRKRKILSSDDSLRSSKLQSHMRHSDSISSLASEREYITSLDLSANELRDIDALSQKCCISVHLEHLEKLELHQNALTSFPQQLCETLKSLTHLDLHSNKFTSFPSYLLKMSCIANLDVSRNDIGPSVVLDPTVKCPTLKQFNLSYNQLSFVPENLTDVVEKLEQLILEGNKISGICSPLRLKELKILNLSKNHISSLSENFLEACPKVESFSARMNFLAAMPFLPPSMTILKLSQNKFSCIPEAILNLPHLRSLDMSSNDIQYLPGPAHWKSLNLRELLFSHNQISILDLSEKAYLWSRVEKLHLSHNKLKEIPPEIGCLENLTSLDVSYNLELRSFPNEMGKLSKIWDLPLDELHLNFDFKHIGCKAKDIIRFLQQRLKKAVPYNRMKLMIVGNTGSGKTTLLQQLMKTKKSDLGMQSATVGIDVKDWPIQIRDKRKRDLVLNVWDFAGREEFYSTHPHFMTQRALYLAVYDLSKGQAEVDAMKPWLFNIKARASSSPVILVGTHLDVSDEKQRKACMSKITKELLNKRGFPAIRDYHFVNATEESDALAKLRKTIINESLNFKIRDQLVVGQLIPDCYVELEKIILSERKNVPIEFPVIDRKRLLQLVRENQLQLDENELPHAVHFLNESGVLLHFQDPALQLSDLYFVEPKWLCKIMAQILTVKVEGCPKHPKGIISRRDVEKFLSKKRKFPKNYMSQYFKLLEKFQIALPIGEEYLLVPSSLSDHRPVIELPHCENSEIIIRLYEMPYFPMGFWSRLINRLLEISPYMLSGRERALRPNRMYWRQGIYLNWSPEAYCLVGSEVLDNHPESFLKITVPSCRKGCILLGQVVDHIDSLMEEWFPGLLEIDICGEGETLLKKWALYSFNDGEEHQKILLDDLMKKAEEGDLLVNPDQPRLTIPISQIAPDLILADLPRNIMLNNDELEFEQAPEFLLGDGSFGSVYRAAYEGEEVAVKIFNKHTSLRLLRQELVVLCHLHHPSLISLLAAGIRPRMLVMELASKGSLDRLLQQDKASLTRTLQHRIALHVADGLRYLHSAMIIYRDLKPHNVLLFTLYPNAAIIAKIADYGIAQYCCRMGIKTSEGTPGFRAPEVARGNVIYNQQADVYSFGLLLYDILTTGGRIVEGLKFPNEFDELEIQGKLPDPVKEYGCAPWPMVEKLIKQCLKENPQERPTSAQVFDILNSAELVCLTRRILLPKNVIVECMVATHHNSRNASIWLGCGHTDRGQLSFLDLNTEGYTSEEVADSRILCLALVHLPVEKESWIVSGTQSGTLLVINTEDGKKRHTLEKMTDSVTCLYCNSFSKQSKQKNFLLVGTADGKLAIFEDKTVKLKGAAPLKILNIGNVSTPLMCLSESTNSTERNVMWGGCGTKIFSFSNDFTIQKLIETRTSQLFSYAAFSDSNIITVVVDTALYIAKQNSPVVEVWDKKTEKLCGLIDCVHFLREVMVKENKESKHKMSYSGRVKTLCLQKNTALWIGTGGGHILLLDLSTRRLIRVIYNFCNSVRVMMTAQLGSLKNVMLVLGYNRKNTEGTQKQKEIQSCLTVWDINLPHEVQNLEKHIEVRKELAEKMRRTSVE

NC(=O)C1(C(=O)N(c2ccc(F)cc2)c2cccc(-c3c[nH]c4ncnc(N5CCOCC5)c34)c2)CCCC1 [compound 3, N-(4-fluorophenyl)-N-(3-(4-morpholino-7H-pyrrolo[2,3-d]pyrimidin-5-yl)phenyl)cyclopentane-1,1-dicarboxamide]
IC50 [1]: 0.694 ± 0.001 µM

NC(=O)C1(C(=O)N(c2ccc(F)cc2)c2cccc(-c3c[nH]c4ncnc(N5CCOCC5)c34)c2)CC1 [compound 2, N-(4-fluorophenyl)-N-(3-(4-morpholino-7H-pyrrolo[2,3-d]pyrimidin-5-yl)phenyl)cyclopropane-1,1-dicarboxamide]
IC50 [1]: 0.185 ± 0.01 µM

COc1cc(C(=O)N2CCOCC2)c(F)cc1Nc1nc(N(C)C)c2c(Cl)c[nH]c2n1 [compound 33]
ΔTm [K] [2]: 16.0 K

CCSc1nc(NC)c2c(-c3cccc(NC(=O)Nc4cc(C(C)(C)C)nn4-c4ccc(C)cc4)c3)c[nH]c2n1 [compound 32, RN341]
ΔTm [K] [2]: 19.9 K

COc1cc2c(Nc3ccc(NC(=O)c4ccccc4)cc3)ncnc2cc1OCCCN1CCOCC1 [ZM447439]
dTm LRRK2(KW) [3]: 6.5 K

Cc1cc(-c2c[nH]c3ncnc(N4CCOCC4)c23)cc(N(C(=O)C2(C(N)=O)CC2)c2ccc(F)cc2)c1 [compound 6, N-(4-fluorophenyl)-N-(3-methyl-5-(4-morpholino-7H-pyrrolo[2,3-d]pyrimidin-5-yl)phenyl)cyclopropane-1,1-dicarboxamide]
IC50 [1]: 2.15 ± 0.076 µM

COc1cc(S(C)(=O)=O)ccc1Nc1nc(N(C)C)c2c(-c3cccc(NC(=O)Nc4cc(C(C)(C)C)nn4-c4ccc(C)cc4)c3)c[nH]c2n1 [compound 35, 1-(3-(tert-butyl)-1-(p-tolyl)-1H-pyrazol-5-yl)-3-(3-(4-(dimethylamino)-2-((2-methoxy-4-(methylsulfonyl)phenyl)amino)-7H-pyrrolo[2,3-d]pyrimidin-5-yl)phenyl)urea]
ΔTm [K] [2]: 1.0 K

Cc1ccc(-c2c[nH]c3ncnc(N4CCOCC4)c23)cc1N(C(=O)C1(C(N)=O)CC1)c1ccc(F)cc1 [compound 7, N-(4-fluorophenyl)-N-(2-methyl-5-(4-morpholino-7H-pyrrolo[2,3-d]pyrimidin-5-yl)phenyl)cyclopropane-1,1-dicarboxamide]
IC50 [1]: 10.5 ± 1.02 µM

N#CC1(c2ccc(NC(=O)c3cccnc3NCc3ccncc3)cc2)CCCC1 [Apatinib]
dTm LRRK2(KW) [3]: -1 K

Cc1ccc(C(=O)Nc2cccc(C(F)(F)F)c2)cc1Nc1nc(-c2cccnc2)nc2c1cnn2C [NVP-BHG712]
dTm LRRK2(KW) [3]: -0.5 K

Cc1ccc(-n2nc(C(C)(C)C)cc2NC(=O)Nc2cccc(-c3c[nH]c4nc(Cl)nc(N5CCOCC5)c34)c2)cc1 [compound 30, RN277]
ΔTm [K] [2]: 18.0 K

NC(=O)C1(C(=O)N(c2ccc(F)cc2)c2ccc3cn[nH]c3c2)CC1 [compound 51, N-(4-fluorophenyl)-N-(1H-indazol-6-yl)cyclopropane-1,1-dicarboxamide]
∆Tm [K] [3]: 1.0 K | IC50 ([1]; read-out: IC50 (cells in μM)): > 15 µM

COc1cc(C(=O)N2CCOCC2)c(F)cc1Nc1nc(N(C)C)c2c(-c3cccc(NC(=O)Nc4cc(C(C)(C)C)nn4-c4ccc(C)cc4)c3)c[nH]c2n1 [compound 36, 1-(3-(tert-butyl)-1-(p-tolyl)-1H-pyrazol-5-yl)-3-(3-(4-(dimethylamino)-2-((5-fluoro-2-methoxy-4-(morpholine-4-carbonyl)phenyl)amino)-7H-pyrrolo[2,3-d]pyrimidin-5-yl)phenyl)urea]
ΔTm [K] [2]: 0.0 K

CCN1CCN(Cc2ccc(NC(=O)c3ccc(C)c(NC(=O)c4cncc(-c5cccs5)c4)c3)cc2C(F)(F)F)CC1 [ALW-II-41-27]
dTm LRRK2(KW) [3]: -0.5 K

Cc1cn(-c2cc(NC(=O)c3ccc(C)c(Nc4nccc(-c5cccnc5)n4)c3)cc(C(F)(F)F)c2)cn1 [Nilotinib]
dTm LRRK2(KW) [3]: -2.5 K

Cc1ccc(NC(=O)c2cccc(N(C)C)c2)cc1NC(=O)c1ccc(O)cc1 [ZM336372]
dTm LRRK2(KW) [3]: -1 K

Cc1ccc(-n2nc(C(C)(C)C)cc2NC(=O)Nc2cc(COc3cccnc3)[nH]n2)cc1 [PF-4618433]
dTm LRRK2(KW) [3]: 11 K

CNC(=O)c1cc(Oc2ccc(NC(=O)Nc3ccc(Cl)c(C(F)(F)F)c3)c(F)c2)ccn1 [Regorafinib]
dTm LRRK2(KW) [3]: 5.5 K

Cn1cc(N(C(=O)C2(C(N)=O)CC2)c2cccc(-c3c[nH]c4ncnc(N5CCOCC5)c34)c2)cn1 [compound 9, N-(1-methyl-1H-pyrazol-4-yl)-N-(3-(4-morpholino-7H-pyrrolo[2,3-d]pyrimidin-5-yl)phenyl)cyclopropane-1,1-dicarboxamide]
IC50 [1]: 2.11 ± 1.19 µM

Cc1ccc(N(C(=O)C2(C(N)=O)CC2)c2ccc(F)cc2)cc1-c1c[nH]c2ncnc(N3CCOCC3)c12 [compound 5, N-(4-fluorophenyl)-N-(4-methyl-3-(4-morpholino-7H-pyrrolo[2,3-d]pyrimidin-5-yl)phenyl)cyclopropane-1,1-dicarboxamide]
IC50 [1]: 9.58 ± 0.565 µM

NC(=O)C1(C(=O)N(c2ccc(F)cc2)c2ccc(Oc3ccc4n[nH]cc4c3)cc2)CC1 [compound 48, N-(4-((2H-indazol-5-yl)oxy)phenyl)-N-(4-fluorophenyl)cyclopropane-1,1-dicarboxamide]
∆Tm [K] [3]: 1.0 K | IC50 ([1]; read-out: IC50 (cells in μM)): > 15 µM

NC(=O)C1(C(=O)N(c2ccc(F)cc2)c2ccc(Nc3ccc4n[nH]cc4c3)cc2)CC1 [compound 49, N-(4-((2H-indazol-5-yl)amino)phenyl)-N-(4-fluorophenyl)cyclopropane-1,1-dicarboxamide]
∆Tm [K] [3]: 2.0 K | IC50 ([1]; read-out: IC50 (cells in μM)): > 15 µM

CC1(C)CNc2cc(NC(=O)c3cccnc3NCc3ccncc3)ccc21 [Motesanib]
dTm LRRK2(KW) [3]: -0.5 K

COc1cc(S(C)(=O)=O)ccc1Nc1nc(N(C)C)c2c(-c3cccc(NC(=O)Nc4cc(C(C)(C)C)nn4-c4ccc5ncccc5c4)c3)c[nH]c2n1 [compound 37, 1-(3-(tert-butyl)-1-(quinolin-6-yl)-1H-pyrazol-5-yl)-3-(3-(4-(dimethylamino)-2-((2-methoxy-4-(methylsulfonyl)phenyl)amino)-7H-pyrrolo[2,3-d]pyrimidin-5-yl)phenyl)urea]
ΔTm [K] [2]: 1.5 K

COc1cc(Oc2ccnc3cc(OC)c(OC)cc23)ccc1NC(=O)NC(C)c1nccs1 (stereo not shown) [KI20227]
dTm LRRK2(KW) [3]: 3 K

Cc1ccc(NC(=O)c2cccc(C(C)(C)C#N)c2)cc1Nc1ccc2ncn(C)c(=O)c2c1 [AZ 628]
dTm LRRK2(KW) [3]: -0.5 K

Cc1cn(-c2cc(NC(=O)c3ccc(C)c(Nc4ccc5n[nH]cc5c4)c3)cc(C(F)(F)F)c2)cn1 [compound 50, 3-((2H-indazol-5-yl)amino)-4-methyl-N-(3-(4-methyl-1H-imidazol-1-yl)-5-(trifluoromethyl)phenyl)benzamide]
∆Tm [K] [3]: 1.5 K | IC50 ([1]; read-out: IC50 (cells in μM)): > 15 µM

Source: paper doi:10.1101/2024.09.17.613365, “Type-II kinase inhibitors that target Parkinson’s Disease-associated LRRK2” (bioRxiv, 2025)
